Legend:
[1] = Induction of anti-CD3/CD28 antibodies-stimulated human T cell activation at 0.3 uM assessed fold increase in IL-2 secretion measured by ELISA assay; assay type: functional, T cell line
[2] = Induction of anti-CD3 antibodies-stimulated human CD4+ T cell activation in immunocompetent mouse assessed fold increase in CD25 expression at 135 mg/kg, po administered twice a day; assay type: functional
[3] = biological target: T1, E3 ubiquitin-protein ligase CBL-B (Homo sapiens, UniProt Q13191); assay: Inhibition of N-terminal Avi-tagged human CBL-B (36 to 427 residues) incubated with 60 nM Src kinase for 1.5 hrs followed by incubation with fluorescently labeled UbcH5B-Ub for 1 hr and measured by TR-FRET assay; assay type: single protein
T1 sequence (Q13191 whole entry, the tested form may be a part): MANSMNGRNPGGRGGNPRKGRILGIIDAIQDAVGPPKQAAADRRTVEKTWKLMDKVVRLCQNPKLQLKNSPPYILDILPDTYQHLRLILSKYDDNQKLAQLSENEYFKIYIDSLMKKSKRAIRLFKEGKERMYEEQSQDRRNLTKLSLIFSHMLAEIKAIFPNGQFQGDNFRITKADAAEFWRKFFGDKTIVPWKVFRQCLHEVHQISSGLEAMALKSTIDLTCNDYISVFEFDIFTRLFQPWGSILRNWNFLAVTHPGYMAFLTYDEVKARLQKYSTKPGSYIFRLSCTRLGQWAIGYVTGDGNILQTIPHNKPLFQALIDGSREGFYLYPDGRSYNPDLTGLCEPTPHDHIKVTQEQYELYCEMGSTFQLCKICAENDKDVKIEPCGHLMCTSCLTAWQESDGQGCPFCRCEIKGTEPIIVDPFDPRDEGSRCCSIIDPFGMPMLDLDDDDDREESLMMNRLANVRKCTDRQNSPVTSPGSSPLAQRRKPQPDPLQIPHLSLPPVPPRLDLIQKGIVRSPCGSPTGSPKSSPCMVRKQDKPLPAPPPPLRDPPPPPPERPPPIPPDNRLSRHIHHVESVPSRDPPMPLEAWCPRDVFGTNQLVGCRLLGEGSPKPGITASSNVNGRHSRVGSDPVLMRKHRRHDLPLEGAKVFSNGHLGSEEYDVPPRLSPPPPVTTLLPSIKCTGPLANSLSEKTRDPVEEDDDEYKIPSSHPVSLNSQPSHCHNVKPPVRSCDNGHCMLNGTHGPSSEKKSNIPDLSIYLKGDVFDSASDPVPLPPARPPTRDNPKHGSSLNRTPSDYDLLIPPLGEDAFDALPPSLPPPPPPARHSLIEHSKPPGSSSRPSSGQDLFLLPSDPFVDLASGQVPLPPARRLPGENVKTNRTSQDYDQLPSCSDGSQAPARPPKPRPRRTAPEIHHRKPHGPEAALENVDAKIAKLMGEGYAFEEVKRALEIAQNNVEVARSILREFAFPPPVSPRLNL

[4] = Induction of anti-CD3/CD28 antibodies-stimulated human T cell activation at 1 uM assessed fold increase in IL-2 secretion measured by ELISA assay; assay type: functional, T cell line
[5] = Induction of anti-CD3 antibodies-stimulated human T cell activation at 1 uM assessed fold increase in CD25 expression measured by ELISA assay; assay type: functional, T cell line
[6] = Induction of anti-CD3 antibodies-stimulated human T cell activation at 1 uM assessed fold increase in IL-2 secretion measured by ELISA assay; assay type: functional, T cell line
[7] = Induction of anti-CD3 antibodies-stimulated human CD8+ T cell activation in immunocompetent mouse assessed fold increase in CD25 expression at 45 mg/kg, po administered twice a day; assay type: functional
[8] = Induction of anti-CD3/CD28 antibodies-stimulated human T cell activation at 1 uM assessed fold increase in CD25 expression measured by ELISA assay; assay type: functional, T cell line
[9] = Induction of anti-CD3/CD28 antibodies-stimulated human T cell activation at 0.3 uM assessed fold increase in CD25 expression measured by ELISA assay; assay type: functional, T cell line
[10] = Induction of anti-CD3 antibodies-stimulated human CD8+ T cell activation in immunocompetent mouse assessed fold increase in CD25 expression at 90 mg/kg, po administered twice a day; assay type: functional
[11] = Induction of anti-CD3 antibodies-stimulated human CD4+ T cell activation in immunocompetent mouse assessed fold increase in CD25 expression at 90 mg/kg, ip administered twice a day; assay type: functional
[12] = Induction of anti-CD3 antibodies-stimulated human CD4+ T cell activation in immunocompetent mouse assessed fold increase in CD25 expression at 90 mg/kg, po administered twice a day; assay type: functional
[13] = Induction of anti-CD3 antibodies-stimulated human CD8+ T cell activation in immunocompetent mouse assessed fold increase in CD25 expression at 90 mg/kg, ip administered thrice a day; assay type: functional
[14] = Induction of anti-CD3 antibodies-stimulated human CD8+ T cell activation in immunocompetent mouse assessed fold increase in CD25 expression at 135 mg/kg, po administered twice a day; assay type: functional
[15] = Induction of anti-CD3 antibodies-stimulated human CD4+ T cell activation in immunocompetent mouse assessed fold increase in CD25 expression at 180 mg/kg, po administered twice a day; assay type: functional
[16] = Induction of anti-CD3 antibodies-stimulated human CD8+ T cell activation in immunocompetent mouse assessed fold increase in CD25 expression at 180 mg/kg, po administered twice a day; assay type: functional
[17] = Induction of activation of human CD56+ CD3- NK cells co-cultured with human K562 cells in 1:1 ratio and assessed as increase in IFN-gamma secretion at 10 uM measured by ELISA assay; assay type: functional, Natural killer cell
[18] = Induction of activation of human CD56+ CD3- NK cells co-cultured with human K562 cells in 5:1 ratio and assessed as increase in MIP1beta secretion at 10 uM measured by ELISA assay; assay type: functional, Natural killer cell
[19] = Induction of activation of human CD56+ CD3- NK cells co-cultured with human K562 cells in 1:1 ratio and assessed as increase in MIP1beta secretion at 1 uM measured by ELISA assay; assay type: functional, Natural killer cell
[20] = biological target: T1, E3 ubiquitin-protein ligase CBL-B; assay: Binding affinity towards N-terminal biotinylated Avi-tagged human CBL-B (36 to 427 residues) measured by surface plasmon resonance assay
[21] = Induction of activation of human CD56+ CD3- NK cells co-cultured with human K562 cells in 1:1 ratio and assessed as increase in IFN-gamma secretion at 1 uM measured by ELISA assay; assay type: functional, Natural killer cell
[22] = Induction of anti-CD3 antibodies-stimulated human T cell activation at 8 uM assessed fold increase in CD25 expression measured by ELISA assay; assay type: functional, T cell line
[23] = Induction of activation of human CD56+ CD3- NK cells co-cultured with human K562 cells in 5:1 ratio and assessed as increase in IFN-gamma secretion at 1 uM measured by ELISA assay; assay type: functional, Natural killer cell
[24] = Induction of activation of human CD56+ CD3- NK cells co-cultured with human K562 cells in 5:1 ratio and assessed as increase in TNF-alpha secretion at 1 uM measured by ELISA assay; assay type: functional, Natural killer cell
[25] = Induction of anti-CD3/CD28 antibodies-stimulated human T cell activation at 4 uM assessed fold increase in IL-2 secretion measured by ELISA assay; assay type: functional, T cell line
[26] = Induction of activation of human CD56+ CD3- NK cells co-cultured with human K562 cells in 5:1 ratio and assessed as increase in IFN-gamma secretion at 10 uM measured by ELISA assay; assay type: functional, Natural killer cell
[27] = Induction of activation of human CD56+ CD3- NK cells co-cultured with human K562 cells in 5:1 ratio and assessed as increase in MIP1beta secretion at 1 uM measured by ELISA assay; assay type: functional, Natural killer cell
[28] = Induction of activation of human CD56+ CD3- NK cells co-cultured with human K562 cells in 1:1 ratio and assessed as increase in TNF-alpha secretion at 1 uM measured by ELISA assay; assay type: functional, Natural killer cell
[29] = Induction of activation of human CD56+ CD3- NK cells co-cultured with human K562 cells in 5:1 ratio and assessed as increase in TNF-alpha secretion at 10 uM measured by ELISA assay; assay type: functional, Natural killer cell
[30] = Induction of anti-CD3/CD28 antibodies-stimulated human T cell activation at 4 uM assessed fold increase in CD25 expression measured by ELISA assay; assay type: functional, T cell line
[31] = Induction of activation of human CD56+ CD3- NK cells co-cultured with human K562 cells in 1:1 ratio and assessed as increase in MIP1beta secretion at 10 uM measured by ELISA assay; assay type: functional, Natural killer cell
[32] = Induction of activation of human CD56+ CD3- NK cells co-cultured with human K562 cells in 1:1 ratio and assessed as increase in TNF-alpha secretion at 10 uM measured by ELISA assay; assay type: functional, Natural killer cell
[33] = Induction of anti-CD3 antibodies-stimulated human T cell activation at 8 uM assessed fold increase in IL-2 secretion measured by ELISA assay; assay type: functional, T cell line
[34] = Induction of activation of human CD56+ CD3- NK cells co-cultured with human K562 cells in 1:1 ratio and assessed as increase in TNF-alpha secretion at 0.625 uM measured by ELISA assay; assay type: functional, Natural killer cell
[35] = Induction of activation of human CD56+ CD3- NK cells co-cultured with human K562 cells in 1:1 ratio and assessed as increase in TNF-alpha secretion at 2.5 uM measured by ELISA assay; assay type: functional, Natural killer cell
[36] = Induction of anti-CD3 antibodies-stimulated human exhausted CD4+ T cell activation assessed fold increase in CTLA4 expression measured by flow cytometry analysis; assay type: functional, T cell line
[37] = Induction of anti-CD3/CD28 antibodies-stimulated human anergic T cell activation at 1.11 uM assessed fold increase in IFN-gamma secretion measured by ELISA assay; assay type: functional, T cell line
[38] = Induction of activation of human CD56+ CD3- NK cells co-cultured with human K562 cells in 1:1 ratio and assessed as increase in IFN-gamma secretion at 2.5 uM measured by ELISA assay; assay type: functional, Natural killer cell
[39] = Induction of activation of human CD56+ CD3- NK cells co-cultured with human K562 cells in 1:1 ratio and assessed as increase in IFN-gamma secretion at 0.625 uM measured by ELISA assay; assay type: functional, Natural killer cell
[40] = Induction of allogenic human T cell activation at 10 uM assessed fold increase in cell proliferation; assay type: functional, T cell line
B cell = assay: Induction of anti-IgM-stimulated human CD20+ B cell activation at 10 to 1000 uM assessed as increase in CD69 expression measured as mean fluorescence intensity AUC by flow cytometry analysis; assay type: functional, cell-based; details: dose 10-1000 µM
[41] = Induction of anti-CD3 antibodies-stimulated human exhausted CD8+ T cell activation assessed fold increase in CTLA4 expression measured by flow cytometry analysis; assay type: functional, T cell line
[42] = Induction of anti-CD3 antibodies-stimulated human exhausted T cell activation assessed fold increase in IFN-gamma secretion measured by ELISA assay; assay type: functional, T cell line
[43] = Induction of anti-CD3 antibodies-stimulated human exhausted T cell activation assessed fold increase in GM-CSF secretion measured by ELISA assay; assay type: functional, T cell line
[44] = Induction of anti-CD3/CD28 antibodies-stimulated human anergic T cell activation at 0.37 uM assessed fold increase in IFN-gamma secretion measured by ELISA assay; assay type: functional, T cell line
[45] = Induction of anti-CD3/CD28 antibodies-stimulated human anergic T cell activation at 10 uM assessed fold increase in IFN-gamma secretion measured by ELISA assay; assay type: functional, T cell line
[46] = Induction of allogenic human T cell activation at 3 uM assessed fold increase in cell proliferation; assay type: functional, T cell line
[47] = Induction of anti-CD3 antibodies-stimulated human exhausted T cell activation assessed fold increase in IL-2 secretion measured by ELISA assay; assay type: functional, T cell line

Compound | fold change (FC) [1] | fold change (FC) [2] | IC50 [3] [nM] | fold change (FC) [4] | fold change (FC) [5] | fold change (FC) [6] | fold change (FC) [7] | fold change (FC) [8] | fold change (FC) [9] | fold change (FC) [10] | fold change (FC) [11] | fold change (FC) [12] | fold change (FC) [13] | fold change (FC) [14] | fold change (FC) [15] | fold change (FC) [16] | fold change (FC) [17] | fold change (FC) [32] | further results
C[C@@H]1CN(Cc2cc3c(c(C(F)(F)F)c2)CN(c2cccc(C4(Cc5nncn5C)COC4)c2)C3=O)CCO1 | >=7.5 | 1.51 | < 100 | >=7.5 | >=1.001 | >=0.201 | 1 | 1.31 | 1.31 | 1 | 1 |  |  |  |  |  |  |  | 
C[C@@H](c1cc2c(c(C(F)(F)F)c1)CN(c1cccc(C3([C@@H](F)c4nncn4C)COC3)c1)C2=O)N1CCC2(CC2)C1 (single isomer, unassigned) | >=7.5 |  | < 100 | >=7.5 | >=1.001 | >=0.201 | 1 | 1.31 | 1.31 |  | 1.51 | >2.5 | 1.51 | 1.51 | >2.5 | 1.51 |  |  | 
Cn1cnnc1C(F)(F)[C@](C)(F)c1cccc(N2Cc3c(cc(CN4CC[C@H](F)C4)cc3C(F)(F)F)C2=O)c1 | 2.51 | 1 | < 100 | >=7.5 | >=1.001 | >=0.201 | <1 | 1.51 | 1.31 | 1 |  | 1 | <1 | 1 | 1.51 | 1 | >=5 | 2.01 | fold change (FC) [18]: 2.01; fold change (FC) [19]: <=1; Kd [20]: < 100 nM; fold change (FC) [21]: 2.01; fold change (FC) [22]: >=1.001; fold change (FC) [23]: >=5; fold change (FC) [24]: 2.01; fold change (FC) [25]: >=7.5; fold change (FC) [26]: >=5; fold change (FC) [27]: 1.01; fold change (FC) [28]: 2.01; fold change (FC) [29]: >=5; fold change (FC) [30]: 1.51; fold change (FC) [31]: 1.01; fold change (FC) [33]: >=0.201
Cn1cnnc1CC1(c2cccc(NC(=O)c3cc(CN4CCC5(CC5)C4)cc(C4CC4)n3)c2)COC1 | >=7.5 |  | < 100 | >=7.5 | >=1.001 | >=0.201 | 1 | 1.31 | 1.31 |  | 1.51 | >2.5 | 1 | 1 | >2.5 | 1.51 | >=5 | >=5 | fold change (FC) [34]: >=5; fold change (FC) [35]: 1.01; fold change (FC) [36]: >1.61; fold change (FC) [37]: >4.01; fold change (FC) [38]: >=5; fold change (FC) [39]: 2.01; fold change (FC) [40]: >3; AUC (B cell): > 1.51; fold change (FC) [41]: >1.61; fold change (FC) [42]: >1.61; fold change (FC) [43]: >1.61; fold change (FC) [44]: >4.01; fold change (FC) [45]: >4.01; fold change (FC) [46]: >3; fold change (FC) [47]: 2.51

Reference: ChEMBL document CHEMBL5050844 (2019)
